We go through seven compounds from PMC6541551 (Journal of psychopharmacology (Oxford, England), 2018).

The nature of data set [1]: Screening of. The data set is classed as in vivo, CD-1 mice. The conditions noted are these: male mice, 50 mg/kg, three timepoints; for AUC (systemic exposure to (2R,6R)-HNK): p.o.
The test system of data set [2] is mice. The data set can be described thus: Forced-swim test. It counts as in vivo, CD-1 mice. The conditions noted are these: 15 mg/kg i.p., vs saline.
The conditions of data set [3]: rats; ref Moaddel et al., 2015; cited from earlier work.

Turning to `CCC(=O)O[C@@H]1CCC[C@@](N)(c2ccccc2Cl)C1=O` [Compound 2b], in data set [1], the “Relative BA (plasma AUClast p.o. / i.p.)” value worked out at 30%.
Regarding `N[C@@]1(c2ccccc2Cl)CCC[C@@H](OC(=O)c2ccccc2)C1=O` [Compound 2e], the “Relative BA (plasma AUClast p.o. / i.p.)” value in data set [1] is on record as 44%.
For `CNC1(c2ccccc2Cl)CCCCC1=O` (racemic) [ketamine, (R,S)-ketamine, reference compound], the “Forced-swim test immobility time” value was “reduced immobility time” in data set [2] (24-hour re-test, p<0.01) and “reduced immobility time” in data set [2] (one hour after administration, p<0.05).
For the compound `N[C@]1(c2ccccc2Cl)CCC[C@H](O)C1=O` [(2S,6S)-HNK, (2S,6S)-hydroxynorketamine], the “oral BA” value in data set [3] was “approximately 46%”.
Turning to `CCCCC(=O)O[C@@H]1CCC[C@@](N)(c2ccccc2Cl)C1=O` [Compound 2c], the “Relative BA (plasma AUClast p.o. / i.p.)” value in data set [1] is listed as 26%.
Consider `CCCCCCCC(=O)O[C@@H]1CCC[C@@](N)(c2ccccc2Cl)C1=O` [Compound 2d], for which, in data set [1], the “Relative BA (plasma AUClast p.o. / i.p.)” value was found to be 10% and the “AUC (systemic exposure to (2R,6R)-HNK)” value is 0.782 µg/mL/h.
Regarding `CC(=O)O[C@@H]1CCC[C@@](N)(c2ccccc2Cl)C1=O` [Compound 2a], in data set [1], the “Relative BA (plasma AUClast p.o. / i.p.)” value was 28% and the “AUC (systemic exposure to (2R,6R)-HNK)” value stood at 2.26 µg/mL/h.
